Laboratory results taken from article PMC4038399, “Experimental validation of [sequence]^comb virtual ligand screening results for eight proteins yields novel nanomolar and micromolar binders” (Journal of Cheminformatics, 2014).
≈ marks a conversion by molar mass, not a printed value. Read-outs that look alike come from different tables or passages of the source. One block for each compound: values may come before it.

Key:
[1] = target: Catalytic subunit of cAMP-dependent protein kinase (cDPK) (Homo sapiens, UniProt P17612); test: Thermal shift (thermal melt) assay, Sypro orange; format: binding, H. sapiens; settings: for Kd: approximate, computed from the thermal shift
Procedure: (§1) High throughput thermal shift assays were carried out following established guidelines (Additional file 1: Table S1). Protein melting curves were obtained from samples aliquoted in 96-well plates using a RealPlex quantitative PCR instrument from Eppendorf (Eppendorf, NY, USA), with Sypro orange dye from Invitrogen as the fluorescent probe. A uniform final concentration of 5 X (supplied as a 5000 X stock solution) was used in all experiments. The dye was excited at 465 nm and emission recorded at 580 nm using the instrument’s filters. A heating ramp of 1°C/min from 25°C to 74°C was used, and one data point acquired for each degree increment. For standardization, different buffers and pH were checked. Thereafter, 100 mM HEPES pH 7.3 and 150 mM NaCl were used in all unfolding experiments. The volume of each reaction was 20 μl, and appropriate dye and protein controls were included. All experiments were done with a minimum of two replicates, with the mean value considered for further analysis. Several drugs/small molecules interact with Sypro orange and lead to aberrant signal enhancements. An additional control to rule out drug-dye interaction was carried out with all the constituents kept constant except for the protein of interest. The protein/protein-drug curves were reported after subtracting the respective dye alone/drug-dye curves.
(§2) Each melting curve was assigned a quality score (Q), the ratio of the melting-associated increase in fluorescence (ΔFmelt) to the total fluorescence range (ΔFtotal). Q = 1 is a high-quality curve, while Q = 0 indicates no thermal transition. Though an arbitrary Q value cutoff was not applied to judge curve quality, the curves were manually curated with Q values reported. […] These were ignored (see Table 1).
(§3) Subsequent to standardization, (see SI Methods), the validity of the top 1% of […]^comb’s predictions on the test set of eight diverse proteins was examined. To be conservative, we focused only on those protein/ligand pairs showing single sigmoidal thermal transition curves. The fit to Boltzmann’s equation (Eq. 1) was employed to estimate the melting temperature from the observed intensity, I.
(§4) (4) I=Imin+Imax-Imin/1+e^Tm-T/a
(§5) Imin and Imax are the minimum and maximum intensities; a denotes the slope of the curve at the transition midpoint temperate, Tm. To estimate thermodynamic parameters, both van’t Hoff and Gibbs-Helmholtz analyses were done. To estimate the approximate ligand-binding affinity at Tm, Eq. (2) from reference was used with slight modifications; ΔCp is ignored.
(§6) (5) KLTm=exp-ΔH/R1/Tm-1/To/L
(§7) KL(Tm) is the ligand association constant and [L] is the free ligand concentration at Tm ([LTm] ~ [L]total, when [L]total > > the total concentration of protein. KD is the inverse of KL(Tm).
(§8) Thermal unfolding of the eight benchmark proteins was carried out in a 20 μl reaction mix with 100 mM HEPES pH 7.3, 150 mM NaCl, 5 X Sypro orange dye, 10 μM protein and 1 mM of all the predicted ligands.

[2] = test system: vancomycin-resistant E. faecium (ATCC700221) (VREF); test: Antimicrobial assay (MIC); format: cell-based
Procedure: (§9) Antimicrobial and anti-cancer tests were performed as in [80].

[3] = test system: HCT-116 colon carcinoma cell line; test: Cytotoxic assay on cancer cell line; format: cell-based
Procedure: as §9

[4] = target: Ubiquitin conjugating enzyme (UCE) (Plasmodium falciparum, UniProt Q8I607); test: Thermal shift (thermal melt) assay, Sypro orange; format: binding, P. falciparum; settings: for Kd: approximate, computed from the thermal shift; for ΔTm: thermal shift, 1 mM ligand, 10 μM protein
Procedure: as §1, §2, §3, §4, §5, §6, §7, §8

[5] = target: T1, Tryptophanyl tRNA synthetase (TrpRS) (Homo sapiens, UniProt P23381); test: Thermal shift (thermal melt) assay, Sypro orange; format: binding, H. sapiens; settings: for ΔTm: in °C (unit assumed); for Q (quality score): ratio ΔFmelt/ΔFtotal
T1 sequence (P23381 1-471): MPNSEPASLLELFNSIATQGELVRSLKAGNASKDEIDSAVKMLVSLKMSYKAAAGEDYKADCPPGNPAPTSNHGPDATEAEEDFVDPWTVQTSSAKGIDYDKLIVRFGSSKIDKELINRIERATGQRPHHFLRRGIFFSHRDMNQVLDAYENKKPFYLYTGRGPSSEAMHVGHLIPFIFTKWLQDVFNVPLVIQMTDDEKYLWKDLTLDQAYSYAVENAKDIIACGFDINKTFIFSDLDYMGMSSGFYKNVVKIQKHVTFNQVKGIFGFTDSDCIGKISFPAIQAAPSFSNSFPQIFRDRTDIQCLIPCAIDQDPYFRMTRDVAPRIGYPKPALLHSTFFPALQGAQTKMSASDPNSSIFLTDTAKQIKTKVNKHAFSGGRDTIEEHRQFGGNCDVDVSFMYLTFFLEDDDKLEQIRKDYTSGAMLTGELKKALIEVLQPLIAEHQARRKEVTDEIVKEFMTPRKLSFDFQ
Procedure: as §1, with “The dye was excited at 465 nm and emission recorded at 580 nm using the instrument’s filters. A heating ramp of 1°C/min from 25°C to 74°C was used, and one data point acquired for each degree increment.” left out
(§10) Each melting curve was assigned a quality score (Q), the ratio of the melting-associated increase in fluorescence (ΔFmelt) to the total fluorescence range (ΔFtotal). Q = 1 is a high-quality curve, while Q = 0 indicates no thermal transition. Though an arbitrary Q value cutoff was not applied to judge curve quality, the curves were manually curated with Q values reported.
as §3, §4, §5, §6, §7, §8

[6] = target: T2, 1000001: Carboxy-terminus phosphatase domain of protein tyrosine phosphatase (2NV5) (Mus musculus, UniProt Q64487); test: Thermal shift (thermal melt) assay, Sypro orange; format: binding, M. musculus; design: key to Q (quality score): Q = ΔFmelt/ΔFtotal; 1 = high-quality curve, 0 = no transition; settings: for ΔTm: in °C (unit assumed)
T2 construct: The C-terminal phosphatase domain from R. norvegicus (PDB ID: 2NV5) (1000001); New York structural genomics consortium (gift)
T2 sequence (Q64487 1331-1621): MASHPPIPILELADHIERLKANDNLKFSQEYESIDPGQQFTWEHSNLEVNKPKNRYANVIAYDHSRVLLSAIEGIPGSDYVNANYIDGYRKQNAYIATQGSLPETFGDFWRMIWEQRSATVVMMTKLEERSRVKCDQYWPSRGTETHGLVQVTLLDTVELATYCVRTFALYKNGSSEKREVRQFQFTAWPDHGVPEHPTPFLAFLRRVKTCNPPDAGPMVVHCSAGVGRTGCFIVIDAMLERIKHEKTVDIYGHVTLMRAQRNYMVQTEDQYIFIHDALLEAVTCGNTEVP
Procedure: as §1, §2, §3, §4, §5, §6, §7, §8

[7] = target: T3, 1000006: catalytic domain of protein tyrosine phosphatase (2G59) (Homo sapiens, UniProt Q16827); test: Thermal shift (thermal melt) assay, Sypro orange; format: binding, H. sapiens; settings: for ΔTm: in °C (unit assumed)
T3 construct: the catalytic domain of PTP from H. sapiens (PDB ID: 2G59) (1000006); New York structural genomics consortium (gift)
T3 sequence (Q16827 938-1195 limits assumed): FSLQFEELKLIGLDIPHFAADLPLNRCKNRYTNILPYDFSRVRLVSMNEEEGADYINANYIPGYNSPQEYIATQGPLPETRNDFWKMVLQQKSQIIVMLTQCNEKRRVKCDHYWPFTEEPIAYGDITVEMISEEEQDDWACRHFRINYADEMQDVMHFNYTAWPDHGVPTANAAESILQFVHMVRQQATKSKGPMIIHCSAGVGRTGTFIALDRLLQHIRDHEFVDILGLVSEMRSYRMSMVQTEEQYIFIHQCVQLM
Procedure: as §1, §2, §3, §4, §5, §6, §7, §8

[8] = target: E. coli dihydrofolate reductase (DHFR) (Escherichia coli, UniProt P0ABQ4); test: biochemical; format: binding; settings: Table S3
Procedure: as §1, with “The dye was excited at 465 nm and emission recorded at 580 nm using the instrument’s filters. A heating ramp of 1°C/min from 25°C to 74°C was used, and one data point acquired for each degree increment.” left out
as §10, §3, §4, §5, §6, §7, §8

[9] = target: Nucleosome assembly protein 1 (NAP1) (Plasmodium knowlesi, UniProt A0A384KYS3); test: Thermal shift (thermal melt) assay, Sypro orange; format: binding, P. knowlesi; settings: for Kd: approximate, computed from the thermal shift, read-out: KD (Approx)
Procedure: as §1, §2, §3, §4, §5, §6, §7, §8

[10] = Table S4, TrpRS, computed from the thermal shifts obtained, read-out: KD (Approx)
[11] = approximate, computed from the thermal shift, read-out: KD
[12] = inhibitory concentration for 50% growth inhibition

Sequence of Ubiquitin conjugating enzyme (UCE) (Q8I607 1-147): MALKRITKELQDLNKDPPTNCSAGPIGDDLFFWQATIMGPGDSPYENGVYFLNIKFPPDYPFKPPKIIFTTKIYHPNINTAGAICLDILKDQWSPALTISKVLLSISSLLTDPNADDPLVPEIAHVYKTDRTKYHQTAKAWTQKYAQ
Sequence of Nucleosome assembly protein 1 (NAP1) (A0A384KYS3 entry or part of it): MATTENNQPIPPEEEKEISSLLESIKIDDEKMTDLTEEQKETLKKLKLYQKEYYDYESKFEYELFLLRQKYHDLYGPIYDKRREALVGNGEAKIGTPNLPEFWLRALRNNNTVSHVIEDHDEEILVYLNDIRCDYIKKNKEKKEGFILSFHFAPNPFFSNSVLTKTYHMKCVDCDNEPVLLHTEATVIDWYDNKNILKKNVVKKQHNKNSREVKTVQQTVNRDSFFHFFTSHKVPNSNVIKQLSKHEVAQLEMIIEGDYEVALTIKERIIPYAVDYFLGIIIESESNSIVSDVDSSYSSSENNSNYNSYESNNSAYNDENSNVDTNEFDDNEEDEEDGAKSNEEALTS
Sequence of E. coli dihydrofolate reductase (DHFR) (P0ABQ4 whole entry): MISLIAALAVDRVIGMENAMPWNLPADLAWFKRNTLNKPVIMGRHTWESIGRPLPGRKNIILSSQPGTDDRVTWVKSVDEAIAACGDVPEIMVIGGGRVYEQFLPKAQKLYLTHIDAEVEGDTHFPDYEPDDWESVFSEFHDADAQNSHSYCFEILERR

- Q (quality score of melting curve, ΔFmelt/ΔFtotal) [1]: 1.0
- Kd ([1]; read-out: KD): 48.5 µM
- Kd ([1]; read-out: KD (Approx)): 48.5 µM
- ΔTm ([1]; thermal shift, 1 mM ligand, 10 μM protein): 2.95 °C
Structure (SMILES): COc1ccc(-c2cc3ccccc3[nH]2)cc1 [NSC 27032]

- MIC ([2]; Enterococcus faecium, ATCC700221): 500 µg/mL (≈ 1100 µM)
- VREF (MIC) ([2]; Table S3): 500 µg/mL
Structure (SMILES): CN(Cc1cnc2nc(N)nc(N)c2n1)c1ccc(C(=O)N[C@@H](CCC(=O)O)C(=O)O)cc1 [NSC 740, methotrexate]
- IC50 ([3]; Homo sapiens, HCT-116, inhibitory concentration for 50% growth inhibition, read-out: HCT-116 (IC-50)): 0.048 µg/mL (≈ 0.106 µM)

Structure (SMILES): NC(=O)c1cc2c3ccccc3ccn2c1-c1ccccc1 [NSC 93427]
- Q (quality score of melting curve, ΔFmelt/ΔFtotal) [4]: 0.05
- Kd ([4]; listed as 93427, read-out: KD (Approx)): 1380 nM
- Kd ([4]; listed as NSC93427, read-out: KD (Approx)): ~1400 nM
- Kd ([4]; read-out: KD): 1380 nM
- ΔTm ([4]; listed as 93427): 14.86 °C
- ΔTm ([4]; listed as NSC93427): ~ 15 °C

Structure (SMILES): Oc1cccc2nc3ccccc3nc12 [NSC 88882]
- Kd [5, 10]: ~3.83 µM
- ΔTm ([5]; Table S4, TrpRS): 12.07
- Q (quality score) ([5]; Table S4, TrpRS): 0.6
- Kd [5, 11]: ~3.8 µM
- Kd ([6]; Table S4, protein 1000001, computed from the thermal shifts obtained, read-out: KD (Approx)): ~1470 nM
- ΔTm ([6]; Table S4, protein 1000001): 9.98
- Q (quality score) ([6]; Table S4, protein 1000001, ratio ΔFmelt/ΔFtotal): 0.8
- ΔTm ([6]; Table S6, 1000001, known binders of 1000001): 9.79
- ΔTm ([7]; Table S6, known binders of 1000001 tested on 1000006): 4.39
- HCT-116 (IC-50) ([3]; Table S4): 4.44
- HCT-116 (IC-50) [3, 12]: 4.44 µg/mL

Structure (SMILES): CCOc1ccc(NC(=O)c2cc3ccccc3cc2O)cc1 [NSC 50690]
- Kd [5, 10]: ~7.74 µM
- ΔTm ([5]; Table S4, TrpRS): 10.27
- Q (quality score) ([5]; Table S4, TrpRS): 0.8
- Kd [5, 11]: 7.7 µM
- Kd ([7]; Table S4, protein 1000006, computed from the thermal shifts obtained, read-out: KD (Approx)): ~51.5 µM
- ΔTm ([7]; Table S4, protein 1000006): 4.59
- Q (quality score) ([7]; Table S4, protein 1000006, ratio ΔFmelt/ΔFtotal): 0.8
- Kd ([8]; computed from the thermal shifts obtained, read-out: KD (Approx)): ~463 µM
- Q (quality score) ([8]; ratio ΔFmelt/ΔFtotal of the melting curve): 0.3
- ΔTm ([8]; thermal shift, in °C (unit assumed)): 0.23

Structure (SMILES): Cc1nc2c(O)cccc2cc1CO [NSC 227309]
- Q (quality score of melting curve, ΔFmelt/ΔFtotal) [9]: 0.8
- ΔTm ([9]; Table S5, 1 mM ligand): 0.64 °C
- Kd [9]: 371 µM

Structure (SMILES): Nc1ccn([C@@H]2O[C@H](CO)[C@@H](O)[C@@H]2O)c(=O)n1 [NSC 63878]
- Kd [9]: 183 µM

- Kd [5, 10]: ~9.06 µM
- ΔTm ([5]; Table S4, TrpRS): 9.9
- Q (quality score) ([5]; Table S4, TrpRS): 0.4
- Kd [5, 11]: ~9.1 µM
Structure (SMILES): O=C(Nc1cccc([N+](=O)[O-])c1)c1cc2ccccc2cc1O [NSC 37168]
- HCT-116 (IC-50) [3, 12]: 1.34 µg/mL
